# Laboratory results: patent publication US20140066365A1, “USE OF CALIXARENES ASSOCIATED WITH AN ANTIBIOTIC IN THE TREATMENT OF BACTERIAL INFECTIONS” (priority 2011, published 2014)
# Where two headings read alike, the source gives them in different places.
# Assays:
# [1] = tested on: SaR1: Meticillin-Resistant Staphylococcus aureus without Associated Resistance; experiment: Antibiogram, MIC by the VITEK 2 system; assay type: cell-based; conditions: SaR1
# Procedure: (§1) The bacterial and antibiogramidentification is carried out by the VITEK 2 system (bioMérieux)
# [2] = tested on: SaR3: Meticillin-Resistant Staphylococcus aureus; experiment: Antibiogram by the disk diffusion technique; assay type: cell-based
# Procedure: (§2) The bacterial and antibiogramidentification is carried out by the VITEK 2 system (bioMérieux) and by the disk diffusion technique
# [3] = tested on: SaR4: Meticillin-Resistant Staphylococcus aureus; experiment: Antibiogram, MIC by the VITEK 2 system; assay type: cell-based; conditions: SaR4; for MIC: Staphylococcus aureus, read-out: MIC
# Procedure: as §2
# [4] = tested on: Staphylococcus aureus strain ATCC 29213 (wild type); experiment: MIC of the compounds used alone, microdilution in a liquid medium (CLSI); assay type: cell-based; conditions: Staphylococcus aureus, ATCC29213, S. aureus ATCC 29213
# From the text: (§3) The MICs of the antibiotics were previously defined for each strain, by the method of microdilution in a liquid medium (CLSI (Clinical and Laboratory Standards Institute), 2003).
# [5] = tested on: SaR1: Meticillin-Resistant Staphylococcus aureus without Associated Resistance; experiment: Antibiogram, inhibition diameter (Table D1); assay type: cell-based
# Procedure: as §1
# [6] = tested on: MRSA strain having a resistance to the aminoglycosides and fluoroquinolones (SaR3); experiment: MIC of the compounds used alone, microdilution in a liquid medium (CLSI); assay type: cell-based, Staphylococcus aureus; conditions: Staphylococcus aureus, MRSA; antibiotic alone (second value of cell); SaR3; read-out: MIC
# From the text: as §3
# [7] = as above; assay type: cell-based, Staphylococcus aureus; conditions: Staphylococcus aureus, MRSA; antibiotic alone (second value of cell); SaR4; read-out: MIC
# From the text: as §3
# [8] = tested on: MRSA strain without associated resistance (SaR1); experiment: as above; assay type: cell-based, Staphylococcus aureus; conditions: Staphylococcus aureus, MRSA; antibiotic alone (second value of cell); SaR1; read-out: MIC
# From the text: as §3
# [9] = tested on: EcR2: Cephalosporinase-Hyperproducing Strain of Escherichia coli; experiment: Antibiogram, MIC by the VITEK 1 system; assay type: cell-based; conditions: for MIC: Escherichia coli, read-out: MIC
# Procedure: The bacterial and antibiogramidentification is carried out by the VITEK 1 system (bioMérieux) and by the disk diffusion technique
# [10] = tested on: EcR1: Penicillinase-Producing Escherichia coli without Associated Resistance; experiment: Antibiogram, MIC by the VITEK 2 system; assay type: cell-based; conditions: for MIC: Escherichia coli
# Procedure: (§4) 5.1 EcR1: Penicillinase-Producing Escherichia coli without Associated Resistance The bacterial and antibiogramidentification is carried out by the VITEK 2 system (bioMérieux) and by the disk diffusion technique.
# [11] = tested on: EcR3: ESBL-Producing Escherichia coli; experiment: Antibiogram by the disk diffusion technique; assay type: cell-based
# Procedure: The bacterial and antibiogramidentification is carried out by the VITEK 2 system (bioMerieux) and by the disk diffusion technique
# [12] = tested on: penicillinase-producing strain of Escherichia coli without associated resistance (EcR1); experiment: MIC of the compounds used alone, microdilution in a liquid medium (CLSI); assay type: cell-based; conditions: Escherichia coli, antibiotic alone (second value of cell), read-out: Initial MICs
# From the text: as §3
# [13] = tested on: ESBL-producing strain of Escherichia coli, having an associated resistance to the aminoglycosides (EcR3); experiment: as above; assay type: cell-based; conditions: Escherichia coli, antibiotic alone (second value of cell), read-out: Initial MICs
# From the text: as §3
# [14] = tested on: cephalosporinase-hyperproducing strain of Escherichia coli (EcR2); experiment: as above; assay type: cell-based; conditions: Escherichia coli, antibiotic alone (second value of cell), read-out: Initial MICs
# From the text: as §3
# [15] = tested on: Escherichia coli strain ATCC 25922 (wild type); experiment: as above; assay type: cell-based; conditions: Escherichia coli, ATCC25922, E. coli ATCC 25922
# From the text: as §3
# [16] = tested on: EcR1: Penicillinase-Producing Escherichia coli without Associated Resistance; experiment: Antibiogram by the disk diffusion technique; assay type: cell-based; conditions: Table A1
# Procedure: as §4
# [17] = tested on: Pseudomonas aeruginosa strain ATCC 27853 (wild type); experiment: MIC of the compounds used alone, microdilution in a liquid medium (CLSI); assay type: cell-based; conditions: Pseudomonas aeruginosa, ATCC27853; antiseptic alone, P. aeruginosa ATCC 27853; read-out: Initial MICs (mg/L), antiseptic (ATS)
# From the text: as §3
# [18] = antibiotic alone (second value of cell), read-out: Initial MICs
# [19] = antiseptic alone, read-out: Initial MICs (mg/L), antiseptic (ATS)
compound,measurement,setting,value
CC[C@H]1OC(=O)[C@H](C)[C@@H](O[C@H]2C[C@@](C)(OC)[C@@H](O)[C@H](C)O2)[C@H](C)[C@@H](O[C@@H]2O[C@H](C)C[C@H](N(C)C)[C@H]2O)[C@](C)(O)C[C@@H](C)C(=O)[C@H](C)[C@@H](O)[C@]1(C)O [Erythromycin],CA-SFM Interpretation,[1]; Cc CA-SFM 2011,Susceptible
same,CLSI Interpretation,[1]; Cc CLSI 2011,Susceptible
same,EUCAST Interpretation,[1]; Cc EUCAST 2011,Susceptible
same,Results,"[1]; Table D1, from MIC",Susceptible
same,MIC mg/L,[1]; Table D2,≦0.25 mg/L
same,MIC,"[1]; Staphylococcus aureus, Table D1, read-out: MIC",≤ 0.25 µg/mL
same,CA-SFM Interpretation,[2]; Cd CA-SFM 2011,Susceptible
same,CLSI Interpretation,[2]; Cd CLSI 2011,Susceptible
same,EUCAST Interpretation,[2]; Cd EUCAST 2011,Susceptible
same,Diameter,[2]; Table E1,25 mm
same,Results,"[2]; Table E1, against Dmin Dmax",Susceptible
same,diameter in mm,[2]; Table E2,25 mm
same,Results,"[3]; Table F1, MIC",Resistant
same,CA-SFM Interpretation,"[3]; from MIC, Cc CA-SFM 2011",Resistant
same,CLSI Interpretation,"[3]; from MIC, Cc CLSI 2011",Resistant
same,EUCAST Interpretation,"[3]; from MIC, Cc EUCAST 2011",Resistant
same,MIC,[3]; Table F1,≥ 8 µg/mL
same,MIC,"[3]; Table F2, MIC",≥ 8 µg/mL
same,MIC,[4]; [18],0.5 mg/L
same,Diameter,[5],25 mm
same,Results,"[5]; from diameter, against Dmin Dmax",Susceptible
same,MIC,[6],0.5 µg/mL
same,MIC,[7],> 32 µg/mL
same,MIC,[8],0.5 µg/mL
CC1(C)S[C@@H]2[C@H](NC(=O)[C@H](N)c3ccc(O)cc3)C(=O)N2[C@H]1C(=O)O [Amoxicillin],Results,"[9]; EcR2, Table B1",Resistant
same,CA-SFM Interpretation,"[9]; EcR2, from MIC, Cc CA-SFM 2011",Resistant
same,CLSI Interpretation,"[9]; EcR2, from MIC, Cc CLSI 2011",Resistant
same,EUCAST Interpretation,"[9]; EcR2, from MIC, Cc EUCAST 2011",Resistant
same,MIC,"[9]; EcR2, VITEK 1, Table B1",≥ 32 µg/mL
same,MIC,"[9]; EcR2, Table B2, MIC",≥ 32 µg/mL
same,CA-SFM Interpretation,"[10]; EcR1, MIC against Cc CA-SFM 2011",Resistant
same,CLSI Interpretation,"[10]; EcR1, MIC against Cc CLSI 2011",Resistant
same,EUCAST Interpretation,"[10]; EcR1, MIC against Cc EUCAST 2011",Resistant
same,Results,"[10]; EcR1, interpretation of the MIC, Table A1",Resistant
same,MIC,"[10]; EcR1, Table A2, read-out: MIC mg/L (diameter in mm)",≥ 32 mg/L
same,MIC,"[10]; EcR1, VITEK 2, Table A1, read-out: MIC",≥ 32 mg/L
same,CA-SFM Interpretation,[11]; Cd CA-SFM 2011,Resistant
same,CLSI Interpretation,[11]; Cd CLSI 2011,Resistant
same,EUCAST Interpretation,[11]; Cd EUCAST 2011,Resistant
same,Diameter,[11]; Table C1,6 mm
same,Results,"[11]; Table C1, against Dmin Dmax",Resistant
same,diameter in mm,[11]; Table C2,6 mm
same,MIC,[12],> 256 µg/mL
same,MIC,[13],> 256 µg/mL
same,MIC,[14],256 µg/mL
same,MIC,[15]; [18],4 mg/L
same,Diameter,"[16]; EcR1, disk diffusion",6 mm
same,Results,"[16]; EcR1, interpretation of the diameter against Dmin Dmax",Resistant
C[C@H]1COc2c(N3CCN(C)CC3)c(F)cc3c(=O)c(C(=O)O)cn1c23 [Levofloxacin],MIC,[4]; [18],0.125 mg/L
same,MIC,[6],8 µg/mL
same,MIC,[7],> 32 µg/mL
same,MIC,[8],0.25 µg/mL
[H]/N=C(\N/C(=N/[H])NCCCCCCNC(=N)NC(=N)Nc1ccc(Cl)cc1)Nc1ccc(Cl)cc1 [Chlorhexidine],MIC,[15]; [19],< 1 mg/L
same,MIC,[4]; [19],< 1 mg/L
same,MIC,[17],4 mg/L
